Results as given in paper PMC5218480 (PLoS ONE, 2017).

Tested on: MV-4-11 cells
Experiment: Gene expression microarray analysis (Affymetrix PrimeView) and GSEA
Format: cell-based, human
Design: RFU PODN (11730768_x_at) / Fold change /veh PODN (11730768_x_at) / RFU LINC00158 (11744669_a_at) / Fold change /veh LINC00158 (11744669_a_at) / RFU DUSP10 (11751237_a_at) / Fold change /veh DUSP10 (11751237_a_at) / RFU ID3 (11757404_x_at) / Fold change /veh ID3 (11757404_x_at) / RFU PLEKHG5 (11737974_s_at) / Fold change /veh PLEKHG5 (11737974_s_at) / RFU LRRC4B (11730491_at) / Fold change /veh LRRC4B (11730491_at) / RFU GIMAP4 (11747438_a_at) / Fold change /veh GIMAP4 (11747438_a_at) / RFU KRT8 (11758183_x_at) / Fold change /veh KRT8 (11758183_x_at) / RFU CNN1 (11734310_a_at) / Fold change /veh CNN1 (11734310_a_at) / RFU VPS37D (11726825_at) / Fold change /veh VPS37D (11726825_at) / RFU C10orf10 (11716522_x_at) / Fold change /veh C10orf10 (11716522_x_at) / RFU KIR2DL2 /// KIR2DL4 /// KIR2DL5A /// KIR2DL5B /// KIR2DS1 /// KIR2DS2 /// KIR2DS3 /// KIR2DS4 /// KIR3DL3 /// KIR3DL3 /// KIR3DS1 (11738374_at) / Fold change /veh KIR2DL2 /// KIR2DL4 /// KIR2DL5A /// KIR2DL5B /// KIR2DS1 /// KIR2DS2 /// KIR2DS3 /// KIR2DS4 /// KIR3DL3 /// KIR3DL3 /// KIR3DS1 (11738374_at) / RFU C1QL1 (11718748_at) / Fold change /veh C1QL1 (11718748_at) / RFU TMPRSS4 (11747572_a_at) / Fold change /veh TMPRSS4 (11747572_a_at) / RFU HAMP (11756126_x_at) / Fold change /veh HAMP (11756126_x_at) / RFU RNFT2 (11725882_a_at) / Fold change /veh RNFT2 (11725882_a_at) / RFU NR4A2 (11747474_a_at) / Fold change /veh NR4A2 (11747474_a_at) / RFU ABCC12 (11746883_a_at) / Fold change /veh ABCC12 (11746883_a_at) / RFU TMEM136 (11760407_x_at) / Fold change /veh TMEM136 (11760407_x_at) / RFU CLDN22 /// WWC2 (11732394_at) / Fold change /veh CLDN22 /// WWC2 (11732394_at) / RFU HLA-DPB1 (11760878_x_at) / Fold change /veh HLA-DPB1 (11760878_x_at) / RFU SPINT1 (11716480_a_at) / Fold change /veh SPINT1 (11716480_a_at) / RFU GAP43 (11754022_s_at) / Fold change /veh GAP43 (11754022_s_at) / RFU A4GNT (11735810_at) / Fold change /veh A4GNT (11735810_at) / RFU PRB3 (11715151_x_at) / Fold change /veh PRB3 (11715151_x_at) / RFU TUBB4B (11761932_at) / Fold change /veh TUBB4B (11761932_at) / RFU CAPN14 (11732068_a_at) / Fold change /veh CAPN14 (11732068_a_at) / RFU TMCC2 (11721928_a_at) / Fold change /veh TMCC2 (11721928_a_at) / RFU IRGQ (11745062_a_at) / Fold change /veh IRGQ (11745062_a_at) / RFU FAM174B (11720279_a_at) / Fold change /veh FAM174B (11720279_a_at) / RFU TMPRSS4 (11748680_a_at) / Fold change /veh TMPRSS4 (11748680_a_at) / RFU FAM212B (11763350_a_at) / Fold change /veh FAM212B (11763350_a_at) / RFU PLEKHG5 (11743358_a_at) / Fold change /veh PLEKHG5 (11743358_a_at) / RFU ZSCAN30 (11745921_a_at) / Fold change /veh ZSCAN30 (11745921_a_at) / RFU CMKLR1 (11741424_a_at) / Fold change /veh CMKLR1 (11741424_a_at) / RFU LOC101060620 /// MAPK8IP1 (11723275_at) / Fold change /veh LOC101060620 /// MAPK8IP1 (11723275_at) / RFU SPTSSB (11747773_x_at) / Fold change /veh SPTSSB (11747773_x_at) / RFU PRSS12 (11739890_at) / Fold change /veh PRSS12 (11739890_at) / RFU BIN1 (11741810_x_at) / Fold change /veh BIN1 (11741810_x_at) / RFU WNT11 (11732464_a_at) / Fold change /veh WNT11 (11732464_a_at) / RFU C10orf10 (11716521_a_at) / Fold change /veh C10orf10 (11716521_a_at) / RFU C5orf56 (11738089_at) / Fold change /veh C5orf56 (11738089_at) / RFU CYB561 (11721691_x_at) / Fold change /veh CYB561 (11721691_x_at) / RFU ANKRD19P (11752326_a_at) / Fold change /veh ANKRD19P (11752326_a_at) / RFU OR2T12 /// OR2T33 /// OR2T8 (11738714_s_at) / Fold change /veh OR2T12 /// OR2T33 /// OR2T8 (11738714_s_at) / RFU VCAN (11748164_a_at) / Fold change /veh VCAN (11748164_a_at) / RFU JSRP1 (11732532_at) / Fold change /veh JSRP1 (11732532_at) / RFU KRTAP10-11 (11738290_x_at) / Fold change /veh KRTAP10-11 (11738290_x_at) / RFU MYO3A (11730013_a_at) / Fold change /veh MYO3A (11730013_a_at) / RFU EBF3 (11725865_a_at) / Fold change /veh EBF3 (11725865_a_at) / RFU CAMK2N1 (11719241_x_at) / Fold change /veh CAMK2N1 (11719241_x_at) / RFU C5orf56 (11738088_a_at) / Fold change /veh C5orf56 (11738088_a_at) / RFU OLFML3 (11715873_a_at) / Fold change /veh OLFML3 (11715873_a_at) / RFU LOC100653217 /// NTM (11731650_a_at) / Fold change /veh LOC100653217 /// NTM (11731650_a_at) / RFU MAPK11 (11762145_a_at) / Fold change /veh MAPK11 (11762145_a_at) / RFU FIZ1 (11724087_x_at) / Fold change /veh FIZ1 (11724087_x_at) / RFU OASL (11726364_x_at) / Fold change /veh OASL (11726364_x_at) / RFU SOX15 (11748057_x_at) / Fold change /veh SOX15 (11748057_x_at) / RFU CD79A (11719716_a_at) / Fold change /veh CD79A (11719716_a_at) / RFU HIST1H1D (11736915_at) / Fold change /veh HIST1H1D (11736915_at) / RFU CASKIN2 (11723855_a_at) / Fold change /veh CASKIN2 (11723855_a_at) / RFU LOC730098 (11760151_x_at) / Fold change /veh LOC730098 (11760151_x_at) / RFU OR4N2 (11742367_at) / Fold change /veh OR4N2 (11742367_at) / RFU PRRT2 (11749266_a_at) / Fold change /veh PRRT2 (11749266_a_at) / RFU SNX32 (11753110_a_at) / Fold change /veh SNX32 (11753110_a_at) / RFU CDHR5 (11726645_a_at) / Fold change /veh CDHR5 (11726645_a_at) / RFU RCAN1 (11760418_a_at) / Fold change /veh RCAN1 (11760418_a_at) / RFU FAM167A (11723789_a_at) / Fold change /veh FAM167A (11723789_a_at) / RFU FAM26E (11764081_at) / Fold change /veh FAM26E (11764081_at) / RFU ISYNA1 (11749810_s_at) / Fold change /veh ISYNA1 (11749810_s_at) / RFU ACY1 (11761880_at) / Fold change /veh ACY1 (11761880_at) / RFU 11764098_at / Fold change /veh 11764098_at / RFU SAMD14 (11745864_x_at) / Fold change /veh SAMD14 (11745864_x_at) / RFU NPB (11741838_a_at) / Fold change /veh NPB (11741838_a_at) / RFU TMPRSS6 (11731388_a_at) / Fold change /veh TMPRSS6 (11731388_a_at) / RFU KRTAP10-2 (11738614_at) / Fold change /veh KRTAP10-2 (11738614_at) / RFU ARHGAP8 /// PRR5-ARHGAP8 (11727945_x_at) / Fold change /veh ARHGAP8 /// PRR5-ARHGAP8 (11727945_x_at) / RFU KRTAP5-7 /// NADSYN1 (11734609_at) / Fold change /veh KRTAP5-7 /// NADSYN1 (11734609_at) / RFU RASL12 (11751679_a_at) / Fold change /veh RASL12 (11751679_a_at) / RFU CDKN2B (11736163_a_at) / Fold change /veh CDKN2B (11736163_a_at) / RFU PRF1 (11729649_at) / Fold change /veh PRF1 (11729649_at) / RFU, ZNF638 /// ZNF638-IT1 / Fold change vs veh, ZNF638 /// ZNF638-IT1 / RFU, PANK3 / Fold change vs veh, PANK3 / RFU, SH3YL1 / Fold change vs veh, SH3YL1 / RFU, ZEB2 / Fold change vs veh, ZEB2 / RFU, NRIP1 / Fold change vs veh, NRIP1 / RFU, PTTG1IP / Fold change vs veh, PTTG1IP / RFU, CAPN2 / Fold change vs veh, CAPN2 / RFU, MED14 / Fold change vs veh, MED14 / RFU, SNORA58 / Fold change vs veh, SNORA58 / RFU, C1orf63 / Fold change vs veh, C1orf63 / RFU, LRRFIP1 / Fold change vs veh, LRRFIP1 / RFU, NDUFAF7 / Fold change vs veh, NDUFAF7 / RFU, SLC12A2 / Fold change vs veh, SLC12A2 / RFU, IBTK / Fold change vs veh, IBTK / RFU, ESF1 / Fold change vs veh, ESF1 / Fold change vs veh, TMEM50B / RFU, TAOK1 / Fold change vs veh, TAOK1 / RFU, ACBD3 / Fold change vs veh, ACBD3 / RFU, TMA16 / Fold change vs veh, TMA16 / RFU, RWDD3 / Fold change vs veh, RWDD3 / RFU, BCAT1 / Fold change vs veh, BCAT1 / RFU, EDEM3 / Fold change vs veh, EDEM3 / RFU, TMEM33 / Fold change vs veh, TMEM33 / RFU, WDR75 / Fold change vs veh, WDR75 / RFU, AHCTF1 / Fold change vs veh, AHCTF1 / RFU, TFRC / Fold change vs veh, TFRC / RFU, ZDHHC17 / Fold change vs veh, ZDHHC17 / RFU, NOM1 / Fold change vs veh, NOM1 / RFU, ARL8B / Fold change vs veh, ARL8B / RFU, ZBTB11 / Fold change vs veh, ZBTB11 / RFU, TAMM41 / Fold change vs veh, TAMM41 / RFU, KIAA1704 /// LOC100996395 / Fold change vs veh, KIAA1704 /// LOC100996395 / RFU, ING1 / Fold change vs veh, ING1 / RFU, TRMT61B / Fold change vs veh, TRMT61B / RFU, FUBP3 / Fold change vs veh, FUBP3 / RFU, TP53 / Fold change vs veh, TP53 / RFU, TNKS2 / Fold change vs veh, TNKS2 / RFU, ZFP14 / Fold change vs veh, ZFP14 / RFU, ACTR2 / Fold change vs veh, ACTR2 / RFU, PPP3R1 / Fold change vs veh, PPP3R1 / RFU, PIK3R1 / Fold change vs veh, PIK3R1 / RFU, HNRNPA1 / Fold change vs veh, HNRNPA1 / RFU, RNF170 / Fold change vs veh, RNF170 / RFU, ZNF28 / Fold change vs veh, ZNF28 / RFU, RNGTT / Fold change vs veh, RNGTT / RFU, OGT / Fold change vs veh, OGT / RFU, BRD1 / Fold change vs veh, BRD1 / RFU, MARS / Fold change vs veh, MARS / RFU, ZNF655 / Fold change vs veh, ZNF655 / RFU, FAHD1 / Fold change vs veh, FAHD1 / RFU, BDP1 / Fold change vs veh, BDP1 / RFU, LRRCC1 / Fold change vs veh, LRRCC1 / RFU, ARID1A / Fold change vs veh, ARID1A / RFU, ZNF146 / Fold change vs veh, ZNF146 / RFU, ZNF330 / Fold change vs veh, ZNF330 / RFU, GPN3 / Fold change vs veh, GPN3 / RFU, C9orf123 / Fold change vs veh, C9orf123 / RFU, N4BP2L2 / Fold change vs veh, N4BP2L2 / RFU, ARFIP1 / Fold change vs veh, ARFIP1 / RFU, FAM179B / Fold change vs veh, FAM179B / RFU, BCL10 / Fold change vs veh, BCL10 / RFU, UHRF1BP1L / Fold change vs veh, UHRF1BP1L / RFU, BET1 / Fold change vs veh, BET1 / RFU, CNOT2 / Fold change vs veh, CNOT2 / RFU, ZNF268 / Fold change vs veh, ZNF268 / Fold change vs veh, ZNF507 / RFU, DGCR2 / Fold change vs veh, DGCR2 / RFU, WDSUB1 / Fold change vs veh, WDSUB1 / Fold change vs veh, HSP90B1 /// MIR3652 / RFU, ADSS / Fold change vs veh, ADSS / RFU, GK / Fold change vs veh, GK / RFU, ZNF148 / Fold change vs veh, ZNF148 / RFU, TAF9 / Fold change vs veh, TAF9 / RFU, SLC1A5 / Fold change vs veh, SLC1A5 / RFU, SLMO2 / Fold change vs veh, SLMO2 / RFU, ABCC4 / Fold change vs veh, ABCC4 / RFU, LOC101060439 /// RAP1B / Fold change vs veh, LOC101060439 /// RAP1B / RFU, RFX7 / Fold change vs veh, RFX7 / RFU, GTPBP10 / Fold change vs veh, GTPBP10 / RFU, CNEP1R1 / Fold change vs veh, CNEP1R1 / RFU, BIVM-ERCC5 /// ERCC5 / Fold change vs veh, BIVM-ERCC5 /// ERCC5 / RFU, ILF3 / Fold change vs veh, ILF3 / RFU 11762660_at / Fold change /veh 11762660_at / RFU VCAN (11757783_s_at) / Fold change /veh VCAN (11757783_s_at) / RFU DDX43 (11728927_at) / Fold change /veh DDX43 (11728927_at) / RFU KRT8 (11758188_x_at) / Fold change /veh KRT8 (11758188_x_at) / RFU NKD1 (11759106_at) / Fold change /veh NKD1 (11759106_at) / RFU SRD5A1 (11742802_a_at) / Fold change /veh SRD5A1 (11742802_a_at) / RFU TPSAB1 /// TPSB2 (11721975_s_at) / Fold change /veh TPSAB1 /// TPSB2 (11721975_s_at) / RFU GSTM3 (11746129_a_at) / Fold change /veh GSTM3 (11746129_a_at) / RFU IL23R (11737362_x_at) / Fold change /veh IL23R (11737362_x_at) / RFU TMEM51 (11727254_a_at) / Fold change /veh TMEM51 (11727254_a_at) / RFU PIWIL2 (11732686_x_at) / Fold change /veh PIWIL2 (11732686_x_at) / RFU ORM1 (11744905_x_at) / Fold change /veh ORM1 (11744905_x_at) / RFU CCDC152 (11743942_at) / Fold change /veh CCDC152 (11743942_at) / RFU ECM1 (11717891_a_at) / Fold change /veh ECM1 (11717891_a_at) / RFU IL23R (11748794_a_at) / Fold change /veh IL23R (11748794_a_at) / RFU TNFAIP8L3 (11732012_x_at) / Fold change /veh TNFAIP8L3 (11732012_x_at) / RFU MBOAT4 (11741988_at) / Fold change /veh MBOAT4 (11741988_at) / RFU 11764193_at / Fold change /veh 11764193_at / RFU TMEM53 (11763286_at) / Fold change /veh TMEM53 (11763286_at) / RFU MAGEB2 (11727129_at) / Fold change /veh MAGEB2 (11727129_at) / RFU TMEM200A (11744735_a_at) / Fold change /veh TMEM200A (11744735_a_at) / RFU CCDC152 (11751479_a_at) / Fold change /veh CCDC152 (11751479_a_at) / RFU FAM211A (11726209_a_at) / Fold change /veh FAM211A (11726209_a_at) / RFU RGS16 (11746705_a_at) / Fold change /veh RGS16 (11746705_a_at) / RFU VCAN (11755009_s_at) / Fold change /veh VCAN (11755009_s_at) / RFU RHOB (11743442_s_at) / Fold change /veh RHOB (11743442_s_at) / RFU RGS16 (11720943_a_at) / Fold change /veh RGS16 (11720943_a_at) / RFU RGS16 (11720944_at) / Fold change /veh RGS16 (11720944_at) / RFU, VPS4B / Fold change vs veh, VPS4B / RFU, CREB1 / Fold change vs veh, CREB1 / RFU, DNAJC13 / Fold change vs veh, DNAJC13 / RFU, GNAQ / Fold change vs veh, GNAQ / RFU, CDK5R1 / Fold change vs veh, CDK5R1 / RFU, ZRANB3 / Fold change vs veh, ZRANB3 / RFU, CUL4A / Fold change vs veh, CUL4A / RFU, CCNY / Fold change vs veh, CCNY / RFU, UFL1 / Fold change vs veh, UFL1 / RFU, COG3 / Fold change vs veh, COG3 / RFU, DIAPH2 / Fold change vs veh, DIAPH2 / RFU, SKA2 / Fold change vs veh, SKA2 / RFU, AFF3 / Fold change vs veh, AFF3 / RFU, LMF1 / Fold change vs veh, LMF1 / RFU, IPO11 / Fold change vs veh, IPO11 / RFU, DFFB / Fold change vs veh, DFFB / RFU, FOXP1 / Fold change vs veh, FOXP1 / RFU, CARD8 / Fold change vs veh, CARD8 / RFU, STRN3 / Fold change vs veh, STRN3 / RFU, ADK / Fold change vs veh, ADK / RFU, RASSF2 / Fold change vs veh, RASSF2 / RFU, WIPF1 / Fold change vs veh, WIPF1 / RFU, LARP1B / Fold change vs veh, LARP1B / RFU, RASA1 / Fold change vs veh, RASA1 / RFU, RB1 / Fold change vs veh, RB1 / RFU, PPFIA1 / Fold change vs veh, PPFIA1 / RFU, MAT2A / Fold change vs veh, MAT2A / RFU, CCT5 / Fold change vs veh, CCT5 / RFU, WDR92 / Fold change vs veh, WDR92 / RFU, CUX1 / Fold change vs veh, CUX1 / RFU, TTC7A / Fold change vs veh, TTC7A / RFU, TMEM135 / Fold change vs veh, TMEM135 / RFU, DEPTOR / Fold change vs veh, DEPTOR / RFU, CPM / Fold change vs veh, CPM / RFU, DNAJB6 / Fold change vs veh, DNAJB6 / RFU, CACNA2D3 / Fold change vs veh, CACNA2D3 / RFU, DTX4 / Fold change vs veh, DTX4 / RFU, TFCP2 / Fold change vs veh, TFCP2 / RFU, GMCL1 /// GMCL1P1 / Fold change vs veh, GMCL1 /// GMCL1P1 / RFU, AEBP2 / Fold change vs veh, AEBP2 / RFU, SNHG1 /// SNORD22 /// SNORD25 /// SNORD26 /// SNORD27 /// SNORD28 /// SNORD29 /// SNORD31 / Fold change vs veh, SNHG1 /// SNORD22 /// SNORD25 /// SNORD26 /// SNORD27 /// SNORD28 /// SNORD29 /// SNORD31 / Fold change (Aza/veh), C12orf56 (ProbeSet 11735607_a_at) / Fold change (ACY-1035/veh), C12orf56 (ProbeSet 11735607_a_at) / Fold change (Aza/veh), FGFR1OP (ProbeSet 11751329_s_at) / Fold change (ACY-1035/veh), FGFR1OP (ProbeSet 11751329_s_at) / Fold change (Aza/veh), VPS36 (ProbeSet 11739960_a_at) / Fold change (ACY-1035/veh), VPS36 (ProbeSet 11739960_a_at) / RFU SYPL1 (11715823_x_at) / Fold change /veh SYPL1 (11715823_x_at) / RFU IGFBP7 (11715501_s_at) / Fold change /veh IGFBP7 (11715501_s_at) / RFU REEP3 (11722064_at) / Fold change /veh REEP3 (11722064_at) / RFU IGLL1 (11728026_x_at) / Fold change /veh IGLL1 (11728026_x_at): dose or concentration left out as unconfirmed
Conditions: MV-4-11 cells, 48 hours

## Nc1ccc(-c2cccs2)cc1NC(=O)c1ccc2c(c1)cc(C1CC1)n2CCN1CCOCC1 [ACY-1035]
  Fold change /veh RASL12 (11751679_a_at): 1.18
